Laboratory results as given in US8791113B2, “2,4-diaryl-substituted [1,8] naphthyridines as kinase inhibitors for use against cancer” (Merck Patent GmbH, priority 2010, dated 2014).
Structures can show the parent of a compound that is named as a salt. Where two headings read alike, the source gives them in different places.

How the values were obtained:
[1] = target: T1, GST-ALK5 (TGF-beta receptor kinase) (Homo sapiens, UniProt P36897); assay: In-vitro (enzyme) kinase flashplate assay: GST-ALK5 phosphorylation of GST-SMAD2 with 33P-ATP; type: biochemical; details: 384-well flashplate kinase assay, GST-ALK5 / GST-SMAD2, 33P-ATP, 30° C., 45 min; read-out: TβR activity (Example 50)
T1 sequence (P36897 34-503): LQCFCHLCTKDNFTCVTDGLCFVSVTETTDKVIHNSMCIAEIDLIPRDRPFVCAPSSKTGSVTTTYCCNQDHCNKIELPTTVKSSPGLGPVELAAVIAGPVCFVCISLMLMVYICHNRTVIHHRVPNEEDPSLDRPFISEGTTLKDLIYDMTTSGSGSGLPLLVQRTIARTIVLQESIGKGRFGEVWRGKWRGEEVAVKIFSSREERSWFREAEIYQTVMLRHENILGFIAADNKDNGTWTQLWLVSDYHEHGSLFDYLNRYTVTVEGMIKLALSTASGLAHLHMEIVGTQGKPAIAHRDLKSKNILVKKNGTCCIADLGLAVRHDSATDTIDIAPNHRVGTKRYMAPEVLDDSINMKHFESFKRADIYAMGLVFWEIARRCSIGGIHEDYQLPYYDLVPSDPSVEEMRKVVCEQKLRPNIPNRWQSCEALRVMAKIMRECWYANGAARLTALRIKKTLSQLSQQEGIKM
Protocol: In-vitro (Enzyme) Assay for Determination of the Efficacy of Inhibitors of the Inhibition of TGF-Beta-Mediated Effects
The kinase assay was carried out as 384-well flashplate assay. 31.2 nM of GST-ALK5, 439 nM of GST-SMAD2 and 3 mM of ATP (with 0.3 μCi of ^33P-ATP/well) were incubated in a total volume of 35 μl (20 mM of HEPES, 10 mM of MgCl2, 5 mM of MnCl2, 1 mM of DTT, 0.1% of BSA, pH 7.4) without or with test substance (5-10 concentrations) at 30° C. for 45 min. The reaction was stopped using 25 μl of 200 mM EDTA solution, filtered with suction at room temperature after 30 min, and the wells were washed with 3 times 100 μl of 0.9% NaCl solution. Radioactivity was measured in the TopCount. The IC50 values were calculated using RS1.

[2] = test system: TGF-beta-induced phosphorylation of Smad2 (Ser465/467) and Smad3 (Ser423/425) in Mv1-Lu cells; assay: Inhibition of Smad2/3 phosphorylation in Mv1Lu cells (PathScan Phospho-Smad2 ELISA); type: cell-based, mink Mustela vison; details: Neogale vison, read-out: TβR activity (Example 51)
Protocol: Inhibition of Smad2/3 Phosphorylation in Mv1 Lu Cells by TGF-Beta Receptor I Kinase Inhibitors
This assay was used to determine the inhibitory potency of compounds on TGF-beta-induced phosphorylation of Smad2 (Ser465/467) and Smad3 (Ser423/425). Mv1-Lu cells (lung epithelial cell line from mink Mustela vison; ATCC number: CCL-64) were seeded in DMEM (Invitrogen) supplemented with 10% fetal bovine serum (Pan Biotech) at a defined cell density in 24-well or 96-well plates (24-well plate: 1.5×10^5 cells per well; 96-well plate: 4×10^4 cells per well). Cell cultures were incubated in DMEM at 37° C. and 10% CO2. On the next day, the medium was replaced and cells were serum-starved for 16-20 hours. The following day, serial dilutions of compounds were added to the wells, pre-incubated for 1.5 hrs before recombinant TGF-beta 1 ligand (final concentration 5 ng/ml; R&D systems) was added. After one hour of ligand stimulation, lysates were prepared and analyzed using an enzyme-linked immunosorbent assay kit (PathScan Phospho-Smad2 Kit, Cell Signaling Technologies). The ELISA detects phosphorylated Smad2 as well as phosphorylated Smad3 with the phospho-specific antibody. TGF-beta stimulated cells and unstimulated cells served as positive and negative controls (100% and background control). The concentration of the vehicle DMSO was kept constant at 0.2% (v/v) in all wells. Dose-response relationships were fitted using curve fitting algorithms of the RS1 statistics software package (Brooks Automation Inc. RS/1- Statistical Tools Handbook. Release 6.2) to determine the concentration at which half-maximal inhibition (IC50) of Smad2/3 phosphorylation was achieved.

[3] = Mv1-Lu cells, TGF-beta 1 5 ng/ml, Phospho-Smad2/3 ELISA

Row | SMILES | IC50 [1] | IC50 [2, 3] | IC50 [2]
1 | O=c1c2cnccc2c(-c2cc(-c3cc(Cl)ccc3F)nc3ncccc23)cn1CCN1CCOCC1 [Compound 76, 4-[2-(5-Chloro-2-fluoro-phenyl)-[1,8]naphthyridin-4-yl]-2-(2-morpholin-4-yl-ethyl)-2H-[2,7]naphthyridin-1-one] | 1000 to 10000 nM | 1000 to 10000 nM | 
2 | CCN(CC)CCn1cc(-c2cc(-c3cc(Cl)ccc3F)nc3ncccc23)c2ccncc2c1=O [Compound 104, 4-[2-(5-Chloro-2-fluoro-phenyl)-[1,8]naphthyridin-4-yl]-2-(2-diethylamino-ethyl)-2H-[2,7]naphthyridin-1-one] | 1000 to 10000 nM | 1000 to 10000 nM | 
3 | Cc1cccc(-c2cc(-c3cccc4c(N)nccc34)c3cccnc3n2)n1 [Compound 6, 5-[2-(6-Methyl-pyridin-2-yl)-[1,8]naphthyridin-4-yl]-isoquinolin-1-ylamine] | < 1000 nM | < 1000 nM | 
4 | Nc1nccc2c(-c3cc(-c4cc(F)ccc4F)nc4ncccc34)nccc12 [Compound 20, 5-[2-(2,5-Difluoro-phenyl)-[1,8]naphthyridin-4-yl]-[2,6]naphthyridin-1-ylamine hydrochloride] | < 1000 nM |  | < 1000 nM
5 | Fc1ccc(C(F)(F)F)cc1-c1cc(-c2c[nH]c3cnccc23)c2cccnc2n1 [Compound 3, 2-(2-Fluoro-5-trifluoromethyl-phenyl)-4-(1H-pyrrolo[2,3-c]pyridin-3-yl)-[1,8]naphthyridine] | < 1000 nM | < 1000 nM | 
6 | CCN(CC)CCOc1ncc(-c2cc(-c3cc(Cl)ccc3F)nc3ncccc23)c2ccncc12 [Compound 98, (2-{4-[2-(5-Chloro-2-fluoro-phenyl)-[1,8]naphthyridin-4-yl]-[2,7]naphthyridin-1-yloxy}-ethyl)-diethyl-amine] | < 1000 nM | < 1000 nM | 
7 | O=c1c2cnccc2c(-c2cc(-c3cc(Cl)ccc3F)nc3ncccc23)cn1CCO [Compound 68, 4-[2-(5-Chloro-2-fluoro-phenyl)-[1,8]naphthyridin-4-yl]-2-(2-hydroxy-ethyl)-2H-[2,7]naphthyridin-1-one] | < 1000 nM | < 1000 nM | 
8 | Fc1ccc(Cl)cc1-c1cc(-c2ccc(OCCN3CCCC3)c3cnccc23)c2cccnc2n1 [Compound 102, 2-(5-Chloro-2-fluoro-phenyl)-4-[8-(2-pyrrolidin-1-yl-ethoxy)-isoquinolin-5-yl]-[1,8]naphthyridine] | < 1000 nM | < 1000 nM | 
9 | CCN(CC)CCOc1ccc(-c2cc(-c3cc(F)ccc3F)nc3ncccc23)c2ccncc12 [Compound 103, (2-{5-[2-(2,5-Difluoro-phenyl)-[1,8]naphthyridin-4-yl]-isoquinolin-8-yloxy}-ethyl)-diethyl-amine] | < 1000 nM | < 1000 nM | 
10 | Fc1ccc(Cl)cc1-c1cc(-c2cc(OCCN3CCOCC3)nc3cnccc23)c2cccnc2n1 [Compound 112, 4-[2-(5-Chloro-2-fluoro-phenyl)-[1,8]naphthyridin-4-yl]-2-(2-morpholin-4-yl-ethoxy)-[1,7]naphthyridine] | < 1000 nM | < 1000 nM | 
11 | Cc1cccc(-c2cc(-c3nccc4c(N)nccc34)c3cccnc3n2)n1 [Compound 21, 5-[2-(6-Methyl-pyridin-2-yl)-[1,8]naphthyridin-4-yl]-[2,6]naphthyridin-1-ylamine hydrochloride] | < 1000 nM |  | < 1000 nM
12 | Cc1ccn(-c2cc(-c3c[nH]c4cnccc34)c3cccnc3n2)n1 [Compound 118, 2-(3-Methyl-pyrazol-1-yl)-4-(1H-pyrrolo[2,3-c]pyridin-3-yl)-[1,8]naphthyridine] | < 1000 nM | < 1000 nM | 

Continued, in another order:

Row | IC50 [1] | IC50 [2, 3] | SMILES | IC50 [2]
13 | < 1000 nM | < 1000 nM | COc1ccc(-c2cc(-c3ccccc3F)nc3ncccc23)c2ccncc12 [Compound 17, 2-(2-Fluoro-phenyl)-4-(8-methoxy-isoquinolin-5-yl)-[1,8]naphthyridine] | 
14 | < 1000 nM | < 1000 nM | Nc1nccc2c(-c3cc(-c4cc(Cl)ccc4F)nc4ncccc34)nccc12 [Compound 11, 5-[2-(5-Chloro-2-fluoro-phenyl)-[1,8]naphthyridin-4-yl]-[2,6]naphthyridin-1-ylamine] | 
15 | 1000 to 10000 nM | > 10000 nM | Fc1ccccc1-c1cc(-c2ncnc3cnccc23)c2cccnc2n1 [Compound 18, 4-[2-(2-Fluoro-phenyl)-[1,8]naphthyridin-4-yl]-pyrido[3,4-d]pyrimidine] | 
16 | < 1000 nM | < 1000 nM | COc1ccc(-c2cc(-c3cc(F)ccc3F)nc3ncccc23)c2ccncc12 [Compound 99, 2-(2,5-Difluoro-phenyl)-4-(8-methoxy-isoquinolin-5-yl)-[1,8]naphthyridine] | 
17 | < 1000 nM | < 1000 nM | Nc1cc2cnccc2c(-c2cc(-c3ccccc3F)nc3ncccc23)n1 [Compound 66, 1-[2-(2-Fluoro-phenyl)-[1,8]naphthyridin-4-yl]-[2,6]naphthyridin-3-ylamine] | 
18 | < 1000 nM | 1000 to 10000 nM | Nc1ccc2cnccc2c1-c1cc(-c2ccccc2F)nc2ncccc12 [Compound 62, 5-[2-(2-Fluoro-phenyl)-[1,8]naphthyridin-4-yl]-isoquinolin-6-ylamine] | 
19 | < 1000 nM | < 1000 nM | COc1cnc(-c2cc(-c3ccccc3F)nc3ncccc23)c2ccncc12 [Compound 115, 2-(2-Fluoro-phenyl)-4-(4-methoxy-[2,6]naphthyridin-1-yl)-[1,8]naphthyridine] | 
20 | < 1000 nM | < 1000 nM | Fc1ccccc1-c1cc(-c2ccc(OCCN3CCOCC3)c3cnccc23)c2cccnc2n1 [Compound 25, 2-(2-fluoro-phenyl)-4-[8-(2-morpholin-4-yl-ethoxy)-isoquinolin-5-yl]-[1,8]naphthyridine] | 
21 | < 1000 nM | < 1000 nM | Nc1nccc2c(-c3cc(-c4ccccc4F)nc4ncccc34)ccnc12 [Compound 113, 4-[2-(2-Fluoro-phenyl)-[1,8]naphthyridin-4-yl]-[1,7]naphthyridin-8-ylamine] | 
22 | < 1000 nM | 1000 to 10000 nM | Fc1ccc(Cl)cc1-c1cc(-c2cncc3ncccc23)c2cccnc2n1 [Compound 37, 5-[2-(5-Chloro-2-fluoro-phenyl)-[1,8]naphthyridin-4-yl]-[1,7]naphthyridine] | 
23 | < 1000 nM | < 1000 nM | Nc1ccc(-c2cc(-c3cc(F)ccc3F)nc3ncccc23)c2ccncc12 [Compound 38, 5-[2-(2,5-Difluoro-phenyl)-[1,8]naphthyridin-4-yl]-isoquinolin-8-ylamine] | 
24 | < 1000 nM | 1000 to 10000 nM | Fc1ccc(Cl)cc1-c1cc(-c2ncnc3cnccc23)c2cccnc2n1 [Compound 24, 4-[2-(5-Chloro-2-fluoro-phenyl)-[1,8]naphthyridin-4-yl]-pyrido[3,4-d]pyrimidine] | 
25 | 1000 to 10000 nM | 1000 to 10000 nM | Fc1ccccc1-c1cc(-c2nccc3cnccc23)c2cccnc2n1 [Compound 23, 2-(2-Fluoro-phenyl)-4-[2,6]naphthyridin-1-yl-[1,8]naphthyridine] | 
26 | > 10000 nM | > 10000 nM | Cn1cc(-c2cnc3nc(-c4ccccc4F)cc(-c4nccc5c(N)nccc45)c3c2)cn1 [Compound 116, 5-[2-(2-Fluoro-phenyl)-6-(1-methyl-1H-pyrazol-4-yl)-[1,8]naphthyridin-4-yl]-[2,6]naphthyridin-1-ylamine] | 
